The values below come from US11248254B2, “Method and system employing distinguishable polymerases for detecting ternary complexes and identifying cognate nucleotides” (Omniome, Inc., priority 2016, dated 2022).

What all share (type): binding
The test system of assay [1] is tested polymerases with primed template nucleic acid. In words: Discrimination between correct and incorrect nucleotides at higher metal cation concentration. The conditions noted are these: cation greater than about 5 mM; 150 mM to 300 mM monovalent metal cations.
In assay [2] the target is T1, ternary complex of primed template nucleic acid, Bst DNA polymerase large fragment and cognate nucleotide (Geobacillus stearothermophilus, UniProt P52026).
T1 construct: 200 nM unlabeled Bst DNA polymerase large fragment
T1 sequence (P52026 289-876 limits assumed): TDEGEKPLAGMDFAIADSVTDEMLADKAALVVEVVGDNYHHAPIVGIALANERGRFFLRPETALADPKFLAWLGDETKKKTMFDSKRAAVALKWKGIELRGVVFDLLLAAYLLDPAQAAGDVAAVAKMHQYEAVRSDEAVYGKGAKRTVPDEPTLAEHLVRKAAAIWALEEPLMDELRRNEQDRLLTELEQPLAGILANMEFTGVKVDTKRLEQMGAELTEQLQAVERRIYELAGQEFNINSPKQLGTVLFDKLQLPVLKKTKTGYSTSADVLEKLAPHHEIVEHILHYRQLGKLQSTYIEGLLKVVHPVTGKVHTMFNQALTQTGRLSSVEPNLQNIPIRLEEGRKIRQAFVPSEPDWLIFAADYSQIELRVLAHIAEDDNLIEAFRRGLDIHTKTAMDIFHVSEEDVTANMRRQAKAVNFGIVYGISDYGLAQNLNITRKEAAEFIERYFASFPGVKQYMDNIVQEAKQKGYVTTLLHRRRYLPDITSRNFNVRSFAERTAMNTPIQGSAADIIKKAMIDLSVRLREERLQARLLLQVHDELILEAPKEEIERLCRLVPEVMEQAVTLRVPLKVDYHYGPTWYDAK
The assay can be described thus: Biolayer interferometry: formation and retention of ternary complexes with different non-catalytic metal ions. The conditions noted are these: 2 mM test metal ion; for binding signal when ternary complexes formed on primed template nucleic acid: 100 μM correct nucleotide, 200 nM Bst polymerase, 60 s binding (FIG. 2); for ternary complex decay / stability following washing: wash without polymerase, 10 μM correct dNTP, 100 μM incorrect dNTP, 300 s (FIG. 2); for ternary complex binding signal following a wash step, expressed as a percentage of the maximum signal: wash in absence of non-bound polymerase, baseline = signal at initial nucleotide contact. An excerpt:
A FORTEBIO® (Menlo Park, Calif.) Octet instrument employing biolayer interferometry to measure binding reactions at the surface of a fiber optic tip was used in a multiwell plate format to assess formation and stability of ternary complexes in the presence of different non-catalytic metal ions. Template nucleic acid strands biotinylated at their 5′-ends were used to immobilize the primed template nucleic acid onto fiber optic tips functionalized with streptavidin (SA) according to standard procedures. Tips were washed in a Tris-buffered solution containing 200 mM KCl, 160 mM potassium glutamate, and 0.01% Tween-20 before commencing the cycling protocol. Binding reactions conducted using 2 mM of the test metal ion (i.e., 2 mM of the metal salt) were carried out in serial fashion using examination buffers that contained Tris-HCl (pH 8.0), 220 mM KCl, 160 mM potassium glutamate, 0.01% Tween-20, 1 mM β-mercaptoethanol, 100 μg/ml BSA, the correct nucleotide at a concentration of 100 μM, and 200 nM unlabeled Bst DNA polymerase large fragment. Salts used in the testing procedure included: SrCl2, Na3VO4, EuCl3, and CuSO4. Examination buffers in this procedure were supplemented with DMSO and betaine to control DNA secondary structure. Binding steps were carried out for 60 seconds, and were followed by wash steps using a buffer that omitted polymerase, but included 10 μM of the correct dNTP, 100 μM of the incorrect dNTP, and 2 mM of the test metal ion. Retention of the ternary complex was measured over the course of 300 seconds. Surviving ternary complexes were stripped from the primed template by exposure to a solution containing 30 mM Tris-HCl (pH 8.0), 1 M NaCl, 4 mM EDTA, 4 mM DTPA, 0.2% SDS, 0.05% Tween-20, and 3% Tween-80 for a period of 30 seconds. This was followed by exposure to a regeneration solution made Tris-HCl (pH 8.0), 220 mM KCl, 160 mM potassium glutamate, 0.01% Tween-20, 1 mM β-mercaptoethanol, 100 μg/ml BSA for 20 seconds before commencing binding of polymerase and cognate nucleotide in the presence of the next test metal ion.

In assay [3] the target is T2, Bsu DNA polymerase large fragment with primed template nucleic acid (Bacillus subtilis, UniProt O34996).
T2 construct: 350 U/ml Bsu DNA polymerase large fragment
T2 sequence (O34996 297-880 limits assumed): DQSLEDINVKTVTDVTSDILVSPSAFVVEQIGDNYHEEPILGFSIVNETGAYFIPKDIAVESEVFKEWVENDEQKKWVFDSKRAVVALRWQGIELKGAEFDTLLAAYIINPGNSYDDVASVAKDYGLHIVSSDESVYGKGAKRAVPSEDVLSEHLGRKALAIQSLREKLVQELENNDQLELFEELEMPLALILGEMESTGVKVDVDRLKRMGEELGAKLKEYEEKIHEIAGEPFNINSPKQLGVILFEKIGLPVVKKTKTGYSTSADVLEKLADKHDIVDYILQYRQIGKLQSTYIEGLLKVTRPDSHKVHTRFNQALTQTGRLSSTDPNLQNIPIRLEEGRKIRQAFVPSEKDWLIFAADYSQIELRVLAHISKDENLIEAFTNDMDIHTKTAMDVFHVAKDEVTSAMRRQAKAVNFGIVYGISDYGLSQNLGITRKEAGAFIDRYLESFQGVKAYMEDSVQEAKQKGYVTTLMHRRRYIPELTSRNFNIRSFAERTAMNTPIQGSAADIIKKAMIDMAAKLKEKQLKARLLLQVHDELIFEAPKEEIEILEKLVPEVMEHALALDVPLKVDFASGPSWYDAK
The assay can be described thus: Biolayer interferometry: discrimination between ternary (cognate dCTP) and binary (non-cognate dGTP) complex formation, KCl titration. The conditions noted are these: 2 mM stabilizing cation, KCl 100-650 mM, potassium glutamate 80-640 mM (FIGS. 3, 4). An excerpt: Materials and methods used in the procedure were as follows. The FORTEBIO® OCTET® instrument employing biolayer interferometry was used to measure binding reactions at the surface of a fiber optic tip in a multiwell plate format to investigate differential formation of binary and ternary complexes. Template strands biotinylated at their 5′-ends were used to immobilize the primed template nucleic acid onto fiber optic tips functionalized with streptavidin (SA) according to standard procedures. The next correct nucleotide for the biotinylated template DNA was dCTP (with dGTP being used as the model incorrect nucleotide). Tips were first equilibrated in a Tris-buffered solution containing 30 mM Tris-HCl (pH 8.0), and 0.1 mM EDTA before commencing the cycling protocol. […] When using a single contacting step to effect binding of polymerase and nucleotide to the primed template nucleic acid, the binding step was 60 seconds long, with binding interactions being monitored continuously. […] Results from interferometry monitoring were analyzed to identify formation of ternary complexes (i.e., identifying cognate nucleotide) or binary complexes (i.e., identifying non-cognate nucleotide).
A general note: BLI is a label-free optical method that tracks binding on a fibre tip over time.

In the case of `[Ni+2]` [Ni^2+], the “ability of polymerase to discriminate between correct and incorrect nucleotides” value (shortened to “ability of polymerase”) in assay [1] is “This was not the case”.

Take `O=S(=O)([O-])[O-].[Cu+2]` [Cu^2+, CuSO4]: in assay [2], the “binding signal when ternary complexes formed on primed template nucleic acid” value (“binding signal … on primed template nucleic acid” below) is “moderately high binding signals” and the “ternary complex decay / stability following washing” value is given as “rapid decay”.

As for `[Tb+3]` [Tb^3+], in assay [1], the “ability of polymerase” value was “reduced abilities to discriminate between correct and incorrect nucleotides”. Further, the “discrimination between ternary and binary complex formation” value in assay [3] is “good discrimination between ternary and binary complex formation was achievable”. Besides, in assay [2], the “ternary complex binding signal following a wash step, expressed as a percentage of the maximum signal” value was “substantially similar to trials conducted using Eu^3+ cations” and the “ternary complex decay / stability following washing” value is on record as “substantially similar to the use of Eu^3+ ions”.

For `[Na+].[Na+].[Na+].[O]=[V]([O-])([O-])[O-]` [V^5+, Na3VO4], in assay [2], the “binding signal … on primed template nucleic acid” value was “moderately high binding signals” and the “ternary complex decay / stability following washing” value is “rapid decay”.

With `[Cl-].[Cl-].[Sr+2]` [Sr^2+, SrCl2], in assay [1], the “ability of polymerase” value is “This was not the case”. In assay [2], the “binding signal … on primed template nucleic acid” value is “high binding signals”; the “ternary complex binding signal following a wash step, expressed as a percentage of the maximum signal” value was “about 40%”; the “ternary complex decay / stability following washing” value was “slower than observed with V^5+ and Cu^2+ ions”.

With `[Cl][Eu]([Cl])[Cl]` [Eu^3+, EuCl3], the “ability of polymerase” value in assay [1] is “reduced abilities to discriminate between correct and incorrect nucleotides”. Besides, in assay [3], the “discrimination between ternary and binary complex formation” value was “good discrimination between ternary and binary complex formation was achievable”. Moreover, in assay [2], the “binding signal … on primed template nucleic acid” value is “high binding signals”; the “ternary complex binding signal following a wash step, expressed as a percentage of the maximum signal” value is “about 80%”; the “ternary complex decay / stability following washing” value is “substantially more stable”.
